# Experimental data as given in patent US8933099B2, “Monocyclic pyridine derivative” (Eisai R&D Management Co., Ltd., priority 2013, dated 2015).
# Like-named read-outs stand apart in the source and are kept apart here.
# Assays:
# [1] = system: human stomach cancer cell line SNU-16 xenograft; assay: Antitumor effect in SNU-16 subcutaneous xenograft model in mice; assay type: in vivo; conditions: oral, once a day for 11 days, tumor volume last day
# Text: Human stomach cancer cell line SNU-16, which had been cultured in an RPMI-1640 medium containing 10% FBS, and penicillin and streptomycin, were adjusted to a concentration of 1×10^8 cells/mL with Hanks' Balanced Salt Solution (GIBCO #24020) to prepare a cell suspension, and the suspension was mixed with […] (BD Biosciences, Cat#354234) in a ratio of 1:1 to prepare a cell suspension in a concentration of 5×10^7 cells/ml. The cell suspension was inoculated in a volume of 100 ut into a subcutaneous part of a right flank of nude mice, 6 to 7 weeks of ages (BALB/cAiel-nu/nu, female, Clea Japan Inc.). Seven days after cell inoculation, the shortest diameter and the longest diameter of a tumor in each mouse were measured by using an electronic digital caliper (Digimatie™ caliper, Mitutoyo Corporation), so as to calculate the volume of the tumor in accordance with the following calculation formula: Tumor volume(mm^3)Longest diameter(mm)×Shortest diameter(mm)×Shortest diameter(mm)/2
# On the basis of the volumes of tumors obtained on the first day of administration, the nude mice were grouped such that averages of the tumor volumes were substantially equal among the groups. Each test substance was dissolved in DMSO, Tween 80 was added thereto to prepare a solution in a 10-fold concentration and the thus prepared solution was stored at the freezer before use. Immediately before the administration, the stock solution was diluted with a 5% glucose solution to obtain a final administration solution (in which a ratio in % among DMSO, Tween 80 and the 5% glucose solution was 3.5:6.5:90). Each evaluation sample was orally administered to test substance administration group at a volume of 0.4 mL per 20 g of body weight once a day continuously for 11 days, and in a control group, an administration solvent was orally administered under the same conditions. Incidentally, the experiment was conducted on groups each consisting of 5 mice.
# With respect to each of the control group and test substance administration group, a ratio of the weight measured on the final day to the weight measured on the first day (relative body weight: RBW) was calculated. If a ratio of the RBW of the test substance administration group/the RBW of the control group is 0.9 or mom, the corresponding test substance administration group was defined as a well-tolerated. In the test substance administration group thus defined as well-tolerated, a ratio of the tumor volume of the test substance-dosing group to the tumor volume of the control group obtained on the last day (TIC) (%) was calculated, and shown in Table 21.
# [2] = system: human stomach cancer cell line SNU-16 (FGFR2 gene amplification); assay: SNU-16 growth inhibition assay; assay type: cell-based
# Description: In this assay, the growth inhibitory activity of a test substance in a human stomach cancer cell line harboring FGFR2 gene amplification is measured.
# Then, 10 μL of Cell Counting Kit-8 (Dojindo Laboratories, CK04) was added to each well, and the resultant was incubated for 1 to 2 hours in a 5% CO2 incubator (37° C.) to cause a color reaction. The absorbance value was measured with ENVISION™ (PerkinElmer Co., Ltd.) at 450 nm.
# [3] = system: normal human umbilical vein endothelial cells (HUVEC); assay: HUVEC growth inhibition assay (VEGF-induced); assay type: cell-based
# Description: The absorbance value was measured with ENVISION™ (PerkinElmer Co., Ltd.) at 450 nm. The absorbance values of the wells without adding the test substance but with VEGF addition was defined as 100% and the absorbance values of the wells with neither the test substance nor VEGF addition was defined as 0%.
# [4] = Homo sapiens, SNU-16, 72 h, read-out: SNU-16 (IC50 (nM)), cell growth, 3 days, Cell Counting Kit-8
# [5] = Homo sapiens, HUVEC, 72 h, read-out: HUVEC (IC50 (nM)), growth in the presence of VEGF 10 ng/mL, 3 days
# [6] = read-out: SNU-16 (IC50 (nM)), cell growth, 3 days, Cell Counting Kit-8
# [7] = read-out: HUVEC (IC50 (nM)), growth in the presence of VEGF 10 ng/mL, 3 days
SMILES,"IC50 [2, 4] [nM]","IC50 [3, 5] [nM]",other results
"CNC(=O)n1ccc2cc(Oc3ccnc(NC(=O)c4ccc(C5CCN(CCO)CC5)cc4)c3)c(OC)cc21 [Example 3, 5-((2-(4-(1-(2-Hydroxyethyl)piperidin-4-yl)benzamide)pyridin-4-yl)oxy)-6-methoxy-N-methyl-1H-indole-1-carboxamide]",–,–,T/C (%) ([1]; 6.25 mg/kg): 45%; T/C (%) ([1]; 12.5 mg/kg): 27%; T/C (%) ([1]; 25 mg/kg): 19%
"CNC(=O)n1ccc2cc(Oc3ccnc(NC(=O)c4ccc(C5CCN(C[C@H](C)O)CC5)cc4)c3)c(OC)cc21 [Example 4, (S)-5-((2-(4-(1-(2-Hydroxypropyl)piperidin-4-yl)benzamide)pyridin-4-yl)oxy)-6-methoxy-N-methyl-1H-indole-1-carboxamide]",–,–,T/C (%) ([1]; 6.25 mg/kg): 40%; T/C (%) ([1]; 12.5 mg/kg): 27%; T/C (%) ([1]; 25 mg/kg): 15%
"CNC(=O)n1ccc2cc(Oc3ccnc(NC(=O)c4ccc(CN5CCC(O)CC5)cc4)c3)c(OC)cc21 [Example 9, 5-((2-(4-((4-Hydroxypiperidin-1-yl)methyl)benzamide)pyridin-4-yl)oxy)-6-methoxy-N-methyl-1H-indole-1-carboxamide]",–,–,T/C (%) ([1]; 25 mg/kg): 55%; T/C (%) ([1]; 50 mg/kg): 39%; T/C (%) ([1]; 100 mg/kg): 30%
"CCOCCOc1cc2c(ccn2C(=O)NC)cc1Oc1ccnc(NC(=O)c2ccc(C3CCN(CCO)CC3)cc2)c1 [Example 25, 6-(2-Ethoxyethoxy)-5-((2-(4-(1-(2-hydroxyethyl)piperidin-4-yl)benzamide)pyridin-4-yl)oxy)-N-methyl-1H-indole-1-carboxamide]",3.8,191,T/C (%) ([1]; 6.25 mg/kg): 31%; T/C (%) ([1]; 12.5 mg/kg): 23%; T/C (%) ([1]; 25 mg/kg): 14%; T/C (%) ([1]; 50 mg/kg): 12%
"CCOCCOc1cc2c(ccn2C(=O)NC)cc1Oc1ccnc(NC(=O)c2ccc(C3CN(CC)C3)cc2)c1 [Example 26, 6-(2-Ethoxyethoxy)-5-((2-(4-(1-ethylazetidin-3-yl)benzamide)pyridin-4-yl)oxy)-N-methyl-1H-indole-1-carboxamide]",5.6,258,T/C (%) ([1]; 6.25 mg/kg): 45%; T/C (%) ([1]; 12.5 mg/kg): 36%; T/C (%) ([1]; 25 mg/kg): 22%; T/C (%) ([1]; 50 mg/kg): 27%
CCN1CC(c2ccc(C(=O)Nc3cc(Oc4cc5ccn(C(=O)NC)c5cc4OCCOC)ccn3)cc2)C1 [Example 89],6.5,416,–
CNC(=O)n1ccc2cc(Oc3ccnc(NC(=O)c4ccc(C5CCN(C[C@@H](C)O)CC5)cc4)c3)c(OCCOC)cc21 [Example 90],6.1,203,–
CNC(=O)n1ccc2cc(Oc3ccnc(NC(=O)c4ccc(C5CCN(C[C@H](C)O)CC5)cc4)c3)c(OCCOC)cc21 [Example 91],5.3,191,–
CCN1CCC(c2ccc(C(=O)Nc3cc(Oc4cc5ccn(C(=O)NC)c5cc4OCCOC)ccn3)cc2)CC1 [Example 92],5.8,182,–
CNC(=O)n1ccc2cc(Oc3ccnc(NC(=O)c4ccc(CN5CCC(O)CC5)cc4)c3)c(OCCOC)cc21 [Example 93],17.6,887,–
CCOCCOc1cc2c(ccn2C(=O)NC)cc1Oc1ccnc(NC(=O)c2ccc(C3CCN(C(C)C)CC3)nc2)c1 [Example 94],7.9,607,–
CCOCCOc1cc2c(ccn2C(=O)NC)cc1Oc1ccnc(NC(=O)c2ccc(CN3CCC[C@@H]3CO)s2)c1 [Example 98],6.3,228,–
CCOCCOc1cc2c(ccn2C(=O)NC)cc1Oc1ccnc(NC(=O)c2ccc(CN3CCC[C@H]3CO)s2)c1 [Example 99],6.3,224,–
CCOCCOc1cc2c(ccn2C(=O)NC)cc1Oc1ccnc(NC(=O)c2ccc(CN3CC[C@@H](O)C3)s2)c1 [Example 100],–,–,"IC50 [2, 6]: 5.8 nM; IC50 [3, 7]: 207 nM"
CCOCCOc1cc2c(ccn2C(=O)NC)cc1Oc1ccnc(NC(=O)c2ccc(CN3CCC(O)CC3)s2)c1 [Example 101],6.8,182,–
CCOCCOc1cc2c(ccn2C(=O)NC)cc1Oc1ccnc(NC(=O)c2ccc(C3CN(C)C3)cc2)c1 [Example 102],–,–,"IC50 [2, 6]: 3.7 nM; IC50 [3, 7]: 226 nM"

SMILES,"IC50 [2, 4] [nM]","IC50 [3, 5] [nM]",other results
CCOCCOc1cc2c(ccn2C(=O)NC)cc1Oc1ccnc(NC(=O)c2ccc(C3CN(C(C)C)C3)cc2)c1 [Example 103],5.4,296,–
CCOCCOc1cc2c(ccn2C(=O)NC)cc1Oc1ccnc(NC(=O)c2ccc(CN3CCC[C@@H]3CO)cc2)c1 [Example 104],13.7,600,–
CCOCCOc1cc2c(ccn2C(=O)NC)cc1Oc1ccnc(NC(=O)c2ccc(CN3CC[C@H](O)C3)cc2)c1 [Example 105],7.8,687,–
CCOCCOc1cc2c(ccn2C(=O)NC)cc1Oc1ccnc(NC(=O)c2ccc(CN3CCC(F)CC3)cc2)c1 [Example 107],22,907,–
CCOCCOc1cc2c(ccn2C(=O)NC)cc1Oc1ccnc(NC(=O)c2ccc(CN3CCN(CC)CC3)cc2)c1 [Example 108],14.7,363,–
CCOCCOc1cc2c(ccn2C(=O)NC)cc1Oc1ccnc(NC(=O)c2ccc(C3CCN(C[C@@H](C)O)CC3)cc2)c1 [Example 111],5.1,195,–
CCOCCOc1cc2c(ccn2C(=O)NC)cc1Oc1ccnc(NC(=O)c2ccc(C3CCN(C[C@H](C)O)CC3)cc2)c1 [Example 112],3.8,202,–
CCOCCOc1cc2c(ccn2C(=O)NC)cc1Oc1ccnc(NC(=O)c2ccc(CN3CCC(O)CC3)cc2)c1 [Example 115],11.4,616,–
CNC(=O)n1ccc2cc(Oc3ccnc(NC(=O)c4ccc(CN5CCC[C@H]5CO)cc4)c3)c(OCCCOC)cc21 [Example 117],16.6,534,–
CNC(=O)n1ccc2cc(Oc3ccnc(NC(=O)c4ccc(C5CN(C[C@@H](C)O)C5)cc4)c3)c(OCCCOC)cc21 [Example 118],8.6,183,–
CNC(=O)n1ccc2cc(Oc3ccnc(NC(=O)c4ccc(C5CN(C[C@H](C)O)C5)cc4)c3)c(OCCCOC)cc21 [Example 119],11.9,242,–
CNC(=O)n1ccc2cc(Oc3ccnc(NC(=O)c4ccc(CN5CC[C@@H](O)C5)cc4)c3)c(OCCCOC)cc21 [Example 121],14.9,518,–
CNC(=O)n1ccc2cc(Oc3ccnc(NC(=O)c4ccc(CN5CCC(O)CC5)cc4)c3)c(OCCCOC)cc21 [Example 122],11.3,494,–
CNC(=O)n1ccc2cc(Oc3ccnc(NC(=O)c4ccc(C5CCN(C[C@@H](C)O)CC5)cc4)c3)c(OCCCOC)cc21 [Example 125],7.2,203,–
CNC(=O)n1ccc2cc(Oc3ccnc(NC(=O)c4ccc(C5CCN(C[C@H](C)O)CC5)cc4)c3)c(OCCCOC)cc21 [Example 126],6.6,197,–
CNC(=O)n1ccc2cc(Oc3ccnc(NC(=O)c4ccc(C5CCN(C)CC5)cc4)c3)c(OCCCOC)cc21 [Example 130],6.8,254,–
